Results from patent US20250313563A1, “GLYCOGEN SYNTHASE KINASE 3 INHIBITORS AND USES THEREOF” (The Broad Institute, Inc., priority 2022, published 2025).
Read-outs that look alike come from different tables or passages of the source.

Columns and labels:
[1] = target: GSK3α (GST-full length GSK3α) (Homo sapiens (Human), UniProt P49840); assay: GSK3α TR-FRET kinase assay; type: biochemical
Summary of the method: (§1)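 Readout: anti-pSer641 Tb antibody/streptavidin-d2 signal after 60 min, expressed as 665/615 ratio and fitted versus log concentration for IC50. Enzyme: 1 nM GST-GSK3 (α or β), compound-preincubated 30 min. Conditions: pH 7.5 Tris buffer with MgCl2, DTT, BSA; ATP at 4 or 2 μM, or 1 mM; 100 min.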

[2] = target: GSK3b (GST-full length GSK3b) (Homo sapiens (Human), UniProt P49841); assay: GSK3b TR-FRET kinase assay; type: biochemical
GSK3b (GST-full length GSK3b), sequence (P49841 whole entry): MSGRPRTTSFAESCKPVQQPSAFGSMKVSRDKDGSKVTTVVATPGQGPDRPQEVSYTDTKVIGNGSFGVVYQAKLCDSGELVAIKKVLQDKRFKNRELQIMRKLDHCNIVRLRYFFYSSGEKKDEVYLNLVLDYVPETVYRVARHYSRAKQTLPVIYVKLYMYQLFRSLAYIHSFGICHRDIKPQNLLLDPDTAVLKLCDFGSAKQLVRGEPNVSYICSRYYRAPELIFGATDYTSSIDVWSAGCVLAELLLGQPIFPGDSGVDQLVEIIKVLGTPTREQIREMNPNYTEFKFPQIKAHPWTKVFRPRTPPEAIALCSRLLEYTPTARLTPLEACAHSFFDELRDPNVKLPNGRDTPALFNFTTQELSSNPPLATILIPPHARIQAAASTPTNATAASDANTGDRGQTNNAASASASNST
Summary of the method: as §1

[3] = 1 nM GSK3α, 4 μM ATP, 30 minute preincubation, Table 16, read-out: GSK3-A TR-FRET BIOCHEMICAL (TR-FRET)
[4] = 1 nM GSK3b, 2 μM ATP, 30 minute preincubation, Table 16, read-out: GSK3-B TR-FRET BIOCHEMICAL (TR-FRET)
[5] = 1 nM GSK3α, 4 μM ATP, 30 minute preincubation, geometric mean, read-out: GSK3-A TR-FRET BIOCHEMICAL (TR-FRET), GMean, IC50
[6] = read-out: GSK3-A (TR-FRET 1 mM ATP), GMean, IC50, 1 mM ATP, geometric mean
[7] = 1 nM GSK3b, 2 μM ATP, 30 minute preincubation, geometric mean, read-out: GSK3-B TR-FRET BIOCHEMICAL (TR-FRET), GMean, IC50
[8] = read-out: GSK3-B (TR-FRET 1 mM ATP), GMean, IC50, 1 mM ATP, geometric mean
[9] = 1 nM GSK3α, 4 μM ATP, 30 minute preincubation, read-out: GSK3-A TR-FRET BIOCHEMICAL (TR-FRET), IC50
[10] = GSK3-A (TR-FRET 1 mM ATP), GMean, IC50, 1 mM ATP, geometric mean
[11] = 1 nM GSK3b, 2 μM ATP, 30 minute preincubation, read-out: GSK3-B TR-FRET BIOCHEMICAL (TR-FRET), IC50
[12] = GSK3-B (TR-FRET 1 mM ATP), GMean, IC50, 1 mM ATP, geometric mean

GSK3α (GST-full length GSK3α), sequence (P49840 whole entry): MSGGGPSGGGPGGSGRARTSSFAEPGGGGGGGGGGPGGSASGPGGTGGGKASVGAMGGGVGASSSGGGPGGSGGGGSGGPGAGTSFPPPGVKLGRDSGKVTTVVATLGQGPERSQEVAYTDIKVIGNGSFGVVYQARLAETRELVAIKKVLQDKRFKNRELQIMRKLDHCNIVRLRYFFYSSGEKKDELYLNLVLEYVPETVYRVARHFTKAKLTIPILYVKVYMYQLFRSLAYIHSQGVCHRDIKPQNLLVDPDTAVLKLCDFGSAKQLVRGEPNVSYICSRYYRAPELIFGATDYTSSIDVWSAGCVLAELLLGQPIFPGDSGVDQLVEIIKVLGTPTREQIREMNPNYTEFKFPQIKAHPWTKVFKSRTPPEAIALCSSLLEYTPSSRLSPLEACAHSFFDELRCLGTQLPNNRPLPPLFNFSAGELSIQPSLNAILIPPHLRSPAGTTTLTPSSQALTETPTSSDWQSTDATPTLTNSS

`Cc1cc([C@H]2CC[C@@]3(CC2)C2=C(CC(C)(C)CC2=O)Nc2n[nH]cc23)ccn1` [Compound 948415] was tested, and the IC50 [1, 3] was ≤ 100 nM and the IC50 [2, 4] was ≤ 100 nM.

With `Cc1cc([C@H]2CC[C@]3(CC2)C2=C(CC(C)(C)CC2=O)Nc2n[nH]cc23)ccn1` [Compound 948416] the IC50 [1, 3] was ≤ 100 nM and the IC50 [2, 4] was 100 to 1000 nM.

For `CC[C@]1(c2cccc(S(=O)(=O)C(C)C)c2)C2=C(CC(C)(C)NC2=O)Nc2n[nH]c(C(F)(F)F)c21` [Compound 948419], the IC50 [1, 5] was ≤ 100 nM, the IC50 [1, 6] was ≤ 100 nM and the IC50 [2, 7] was ≤ 100 nM. For the same compound, the IC50 [2, 8] was ≤ 100 nM.

Work on `CC[C@@]1(c2cccc(S(C)(=O)=O)c2)C2=C(CC(C)(C)NC2=O)Nc2n[nH]c(C(F)(F)F)c21` [Compound 948422] yielded an IC50 [1, 5] of 100 to 1000 nM and an IC50 [2, 7] of 100 to 1000 nM.

For `CC[C@@]1(c2cccc(S(=O)(=O)C(C)C)c2)C2=C(CC(C)(C)NC2=O)Nc2n[nH]c(C(F)(F)F)c21` [Compound 948423], the IC50 [1, 5] was ≤ 100 nM and the IC50 [2, 7] was 100 to 1000 nM.

`CC(=O)N1C[C@]2(C[C@]3(CO2)C2=C(CC(C)(C)CC2=O)Nc2n[nH]cc23)[C@H]1C` [Compound 948437] was tested, and the IC50 [1, 9] was ≤ 100 nM, the IC50 [1, 10] was ≤ 100 nM and the IC50 [2, 11] was ≤ 100 nM. For the same compound, the IC50 [2, 12] was ≤ 100 nM.

`CC(=O)N1C[C@@]2(C[C@]3(CO2)C2=C(CC(C)(C)CC2=O)Nc2n[nH]cc23)[C@@H]1C` [Compound 948438] was tested, and the IC50 [1, 9] was ≤ 100 nM and the IC50 [2, 11] was ≤ 100 nM.

For `CC(=O)N1C[C@]2(C[C@@]3(CO2)C2=C(CC(C)(C)CC2=O)Nc2n[nH]cc23)[C@H]1C` [Compound 948439], the IC50 [1, 9] was ≤ 100 nM, the IC50 [1, 10] was ≤ 100 nM and the IC50 [2, 11] was ≤ 100 nM. For the same compound, the IC50 [2, 12] was ≤ 100 nM.

In the case of `CC(=O)N1C[C@@]2(C[C@@]3(CO2)C2=C(CC(C)(C)CC2=O)Nc2n[nH]cc23)[C@@H]1C` [Compound 948440], the IC50 [1, 9] is reported as ≤ 100 nM and the IC50 [2, 11] is reported as ≤ 100 nM.

For `CCC1(c2cccc(-c3ccnc(C)c3)c2)C2=C(CC(C)(COC)NC2=O)Nc2n[nH]cc21` (stereo not shown) [Compound 948493], the IC50 [1, 5] was > 5000 nM and the IC50 [2, 7] was > 5000 nM.

`CC[C@]1(c2cccc(-c3ccncc3C)c2)C2=C(CC3(CCC3)NC2=O)Nc2n[nH]cc21` [Compound 948512] was tested, and the IC50 [1, 5] was ≤ 100 nM, the IC50 [1, 6] was 100 to 1000 nM and the IC50 [2, 7] was ≤ 100 nM. It also gave an IC50 [2, 8] of 1000 to 5000 nM.

For `CC[C@]1(c2cccc(-c3ccnc(C)c3)c2)C2=C(CC3(CCOCC3)NC2=O)Nc2n[nH]c(C)c21` [Compound 948513], the IC50 [1, 5] was ≤ 100 nM and the IC50 [2, 7] was 100 to 1000 nM.

In the case of `CCC1(c2cccc(-c3c(F)cncc3F)c2)C2=C(CC(C)(C)NC2=O)Nc2n[nH]cc21` (stereo not shown) [Compound 948514], the IC50 [1, 5] is reported as 1000 to 5000 nM and the IC50 [2, 7] is reported as > 5000 nM.

`CCC1(c2cccc(-c3c(Cl)cncc3Cl)c2)C2=C(CC(C)(C)NC2=O)Nc2n[nH]cc21` (stereo not shown) [Compound 948515] was tested, and the IC50 [1, 5] was ≤ 100 nM, the IC50 [1, 6] was ≤ 100 nM and the IC50 [2, 7] was ≤ 100 nM. For the same compound, the IC50 [2, 8] was 100 to 1000 nM.

`CCC1(c2cccc(-c3ccnn3C)c2)C2=C(CC3(CCOCC3)NC2=O)Nc2n[nH]cc21` (stereo not shown) [Compound 948516] was tested, and the IC50 [1, 5] was ≤ 100 nM and the IC50 [2, 7] was 100 to 1000 nM.

In the case of `CC[C@]1(c2cccc(-c3ccnc4ccc(Cl)cc34)c2)C2=C(CC(C)(C)N(C)C2=O)Nc2n[nH]cc21` [Compound 948517], the IC50 [1, 5] is reported as ≤ 100 nM and the IC50 [2, 7] is reported as ≤ 100 nM.

With `CC[C@@]1(c2cccc(-c3ccnc4ccc(OC)cc34)c2)C2=C(CC(C)(C)NC2=O)Nc2n[nH]cc21` [Compound 948518] the IC50 [1, 5] was > 5000 nM and the IC50 [2, 7] was > 5000 nM.

For `CC[C@@]1(c2cccc(-c3ccnc4cc(F)ccc34)c2)C2=C(CC(C)(C)NC2=O)Nc2n[nH]cc21` [Compound 948519], the IC50 [1, 5] was > 5000 nM and the IC50 [2, 7] was > 5000 nM.

`CCC1(c2cccc(-c3ccnc(OC)c3F)c2)C2=C(CC(C)(C)NC2=O)Nc2n[nH]cc21` (stereo not shown) [Compound 948520] was tested, and the IC50 [1, 5] was 100 to 1000 nM and the IC50 [2, 7] was 1000 to 5000 nM.

In the case of `CCC1(c2cccc(-c3ccnc(C)c3)c2)C2=C(CC(C)(COC)NC2=O)Nc2n[nH]cc21` (stereo not shown) [Compound 948521], the IC50 [1, 5] is reported as ≤ 100 nM and the IC50 [2, 7] is reported as 1000 to 5000 nM.

`CCC1(c2cccc(-c3ccnn3C)c2)C2=C(CC3(CCC3)NC2=O)Nc2n[nH]cc21` (stereo not shown) [Compound 948522] was tested, and the IC50 [1, 5] was 100 to 1000 nM and the IC50 [2, 7] was > 5000 nM.

In the case of `CCC1(c2cccc(-c3ccncc3C)c2)C2=C(CC3(CCC3)NC2=O)Nc2n[nH]cc21` (stereo not shown) [Compound 948523], the IC50 [1, 5] is reported as ≤ 100 nM and the IC50 [2, 7] is reported as 100 to 1000 nM.

In the case of `CCC1(c2cccc(-c3ccnc(C)c3)c2)C2=C(CC3(CCOCC3)NC2=O)Nc2n[nH]cc21` (stereo not shown) [Compound 948524], the IC50 [1, 5] is reported as 1000 to 5000 nM and the IC50 [2, 7] is reported as > 5000 nM.

With `CC[C@]1(c2cccc(-c3ccnn3C)c2)C2=C(CC3(CCOCC3)NC2=O)Nc2n[nH]cc21` [Compound 948526] the IC50 [1, 5] was 1000 to 5000 nM and the IC50 [2, 7] was > 5000 nM.
